Measurements from ChEMBL document CHEMBL1240307, “A functional genomics approach to the mode of action of apratoxin A” (Nat Chem Biol, 2006).
Calls of active or inactive are those of the source. The rule behind the calls is not given here.

Experiments:
Danio rerio [1] = species: Danio rerio; assay: Inhibition of FGFR-mediated mkp3 mRNA expression in Zebrafish embryo tailbud region at 40 uM by in situ hybridization analysis
Danio rerio [2] = species: Danio rerio; assay: Inhibition of FGFR-mediated fin development in Zebrafish embryo at 40 uM by in situ hybridization method at 48-60 hrs post fertilization stage
Danio rerio [3] = species: Danio rerio; assay: Inhibition of FGFR-mediated mkp3 mRNA expression in Zebrafish dorsal forebrain at 40 uM by in situ hybridization analysis; format: tissue-based
Danio rerio [4] = species: Danio rerio; assay: Inhibition of FGFR-mediated mkp3 mRNA expression in Zebrafish embryo mid-hind brain boundary at 40 uM by in situ hybridization analysis
Danio rerio [5] = species: Danio rerio; assay: Inhibition of FGFR-mediated distal pectoral fin development in Zebrafish embryo at 700 nM by in situ hybridization method at 48-60 hrs post fertilization stage

SMILES: Cc1c[nH]c(/C=C2\C(=O)Nc3ccccc32)c1CCC(=O)O
- inhibition (Danio rerio [1]): Active
- inhibition (Danio rerio [2]): 76%
- inhibition (Danio rerio [3]): Active
- inhibition (Danio rerio [4]): Active
- inhibition (Danio rerio [5]): 72%
